Reference: patent publication US8895032B2, “Dendritic nano-antioxidants” (Central Michigan University, priority 2009, dated 2014)

System: pBR 322 DNA with Cu2+
Assay: Pro-oxidant effect: oxidation of DNA with copper (II) ion
Conditions: 10 μM Cu2+, 37° C., 1 h
Description: The pro-oxidant effect of compounds 1, 2, and 3 was examined by oxidation of DNA with copper (II) ion. pBR 322 was incubated with 10 μM Cu^2+ at 37° C. for 1 h in the presence of compound 1, 2, or 3 (final concentrations between 0.35 and 45 μM). […] Lane 1 is native DNA, and lanes 2-10 are Cu^2+-oxidized DNA with 0, 45, 23, 11, 5, 3, 1.5, 0.7, and 0.35 μM antioxidant, respectively.
This was performed by co-incubation of DNA (pBR 322), copper (II) ion and antioxidant. […] This ultimately forms DNA-Cu(I)OOH, initiating a free radical cascade by which DNA damage occurs. pBR 322 was incubated with 10 μM Cu^2+ in the presence of antioxidants (0-45 μM) at 37° C. for 1 h and subjected to agarose electrophoresis. […] In FIG. 32, lane 1 is native DNA, and lanes 2-10 are Cu^2+ oxidized DNA with 0, 45, 23, 11, 5, 3, 1.5, 0.7, and 0.35 μM antioxidant, respectively. […] However, it should be noted that physiological concentrations of copper are less than 10-20 μM in plasma and approximately […] for the cation in cells.

In the case of `Cc1c(C)c2c(c(C)c1O)CCC(C)(C(=O)O)O2` (centres unmarked) [Trolox, 6-hydroxy-2,5,7,8-tetramethylchroman-2-carboxylic acid], the “pro-oxidant effect on DNA at the concentrations tested” value (0.35-45 μM antioxidant) is reported as “strong pro-oxidant effect equivalent to quercetin” and the “pro-oxidant DNA damage” value (11-45 μM antioxidant) is reported as “DNA damage was clearly observed”.
